Columns and labels:
Test in all cases: Cell viability assay (resazurin)
Assay type in all cases: cell-based
LCL#1 = conditions: 120 h, Normal, Epstein-Barr-virus-transformed lymphoblastoid cell lines, five day incubation
Method: (§1) A dilution series of compound or vehicle are transferred to 96-well plates. Cells are seeded into the plate (500-10,000 cells/well) in suitable media and incubated for five days in 5% CO2 at 37° C. Thereafter, resazurin (diluted in suitable medium or PBS) are added to a final concentration 10 μg/ml resazurin at 37° C. for 2-4 hours before measuring the fluorescence (Ex544/Em590), essentially as described (Riss, Terry L. et al., “Cell Viability Assays.” In Assay Guidance Manual, ed. G. Sitta Sittampalam, et al. Bethesda (Md.): Eli Lilly & Company and the National Center for Advancing Translational Sciences (2004) http://www.ncbi.nlm.nih.gov/books/NBK144065/).
(§2) The compounds to be tested are nano-dispensed in duplicate in 11 concentrations, directly in 384-well cell plates, with a final DMSO concentration<1%. Cells are seeded in cell plates, pre-dispensed with compounds (200-2500 cells/well in 50 μl). After three or five days culture in 5% CO2, 37° C., resazurin diluted in PBS is added, 10 μl/well, to a final concentration of 10 μg/ml and cells are incubated 2-4 hours before measuring fluorescence (Ex544/Em590), as described (ibid.). Results obtained for selected example compounds described herein on cancer- and non-transformed cell lines are provided in the table below (Table 3) and summarized in FIG. 1. Where indicated, combination indexes was measured with CompuSyn software (www.compusyn.com) by the method of Chou-Talalay (Chou, Ting-Chao., Cancer Research, 70(2), 440-46 (2010)).

CCRF-CEM = conditions: Homo sapiens, 120 h, Cancer, Acute Lymphoblastic Leukemia, five day incubation
Method: as §1, §2

SaOS2 = conditions: Homo sapiens, SAOS-2, 120 h, Cancer, Osteosarcoma, five day incubation
Method: as §1, §2

HeLa = conditions: Homo sapiens, 120 h, Cancer, Cervical adenocarcinoma, five day incubation
Method: as §1, §2

HT-29 = conditions: Homo sapiens, 120 h, Cancer, Colorectal Adenocarcinoma, five day incubation
Method: as §1, §2

Rec1 = conditions: Homo sapiens, 120 h, Cancer, Mantle Cell Lymphoma, five day incubation
Method: as §1, §2

T98G = conditions: Homo sapiens, 120 h, Cancer, Glioblastoma Multiforme, five day incubation
Method: as §1, §2

Daudi = conditions: Homo sapiens, 120 h, Cancer, Burkitt's Lymphoma, five day incubation
Method: as §1, §2

HL-60 = conditions: Homo sapiens, 120 h, Cancer, Acute Promyelocytic Leukemia, five day incubation
Method: as §1, §2

Reh = conditions: Homo sapiens, 120 h, Cancer, Acute Lymphocytic Leukemia, five day incubation
Method: as §1, §2

HCT116 + Chr3 = conditions: Homo sapiens, HCT-116, 120 h, Cancer, Colorectal Carcinoma, five day incubation
Method: as §1, §2

CCD841 = conditions: CCD-841, 120 h, Normal, fetal epithelial colon, five day incubation
Method: as §1, §2

SMILES	EC50 (LCL#1) [µM]	EC50 (CCRF-CEM) [µM]	EC50 (SaOS2) [µM]	EC50 (HeLa) [µM]	EC50 (HT-29) [µM]	EC50 (Rec1) [µM]	EC50 (T98G) [µM]	EC50 (Daudi) [µM]	EC50 (HL-60) [µM]	EC50 (Reh) [µM]	EC50 (HCT116 + Chr3) [µM]	EC50 (CCD841) [µM]
O=C(Nc1ccc(I)cc1)N1CCC(n2c(=O)[nH]c3c(Br)cccc32)CC1 [Example 13, 4-(4-Bromo-2-oxo-2,3-dihydro-1H-1,3-benzodiazol-1-yl)-N-(4-iodophenyl)piperidine-1-carboxamide]	33	15	21	22	24	14	14	13	22	19	21	43
O=C(Nc1ccc(Cl)c(Cl)c1)N1CCC(n2c(=O)[nH]c3c(-c4ccc(CO)nc4)cccc32)CC1 [Example 28, N-(3,4-dichlorophenyl)-4-{4-[6-(hydroxymethyl)pyridin-3-yl]-2-oxo-2,3-dihydro-1H-1,3-benzodiazol-1-yl}piperidine-1-carboxamide]	34	11	16	16	23	13	19	10	14	15	17	40
Cc1cc(NC(=O)N2CCC(n3c(=O)[nH]c4c(Br)cccc43)CC2)ccc1I [Example 50, 4-(4-Bromo-2-oxo-2,3-dihydro-1H-1,3-benzodiazol-1-yl)-N-(4-iodo-3-methylphenyl)piperidine-1-carboxamide]	40	7.9	20	35	22	15	17	12	24	17	20	54

Source: patent US11970474B2, “Substituted benzodiazoles and use thereof in therapy” (THOMAS HELLEDAYS STIFTELSE FÖR MEDICINSK FORSKNING, priority 2018, dated 2024)
